One assay concerns the target TcG6PDH wildtype (Trypanosoma cruzi, UniProt Q1WBU6). The assay is described as follows: Inhibitor assay with wildtype TcG6PDH (NADPH formation at 340 nm). The assay is classed as biochemical. The note with it: for activity at 30 µM: read-out: G6PDH Activity [%] ± SD at 30 µM Compound; for increase of potency towards the parasite enzyme compared to the parental scaffold (EA): vs EA; for inhibition at 30 µM: read-out: inhibition at 30 μM compound.

The target of a further assay is T. cruzi G6PDH (TcG6PDH). The note with it: cited from earlier work.
For the next assay, the target named is human G6PDH. The note with it: cited from earlier work; for increase of inhibition of human G6PDH compared to the parental scaffold (EA): vs EA; for IC50: read-out: IC50 (anti-human G6PDH activity).
The next assay deals with G6PDH from T. brucei. As to conditions: cited from earlier work.
For assay [1], the system named is African trypanosomes expressing an ectopic copy of L. mexicana G6PDH. As to conditions: endogenous G6PDH deficient; cited from earlier work.
The next assay deals with WT TcG6PDH. The assay is described as follows: Kinetic assay of WT TcG6PDH with substrates.

Where two headings read alike, the source gives them in different places.

TcG6PDH wildtype, sequence (Q1WBU6 entry or part of it): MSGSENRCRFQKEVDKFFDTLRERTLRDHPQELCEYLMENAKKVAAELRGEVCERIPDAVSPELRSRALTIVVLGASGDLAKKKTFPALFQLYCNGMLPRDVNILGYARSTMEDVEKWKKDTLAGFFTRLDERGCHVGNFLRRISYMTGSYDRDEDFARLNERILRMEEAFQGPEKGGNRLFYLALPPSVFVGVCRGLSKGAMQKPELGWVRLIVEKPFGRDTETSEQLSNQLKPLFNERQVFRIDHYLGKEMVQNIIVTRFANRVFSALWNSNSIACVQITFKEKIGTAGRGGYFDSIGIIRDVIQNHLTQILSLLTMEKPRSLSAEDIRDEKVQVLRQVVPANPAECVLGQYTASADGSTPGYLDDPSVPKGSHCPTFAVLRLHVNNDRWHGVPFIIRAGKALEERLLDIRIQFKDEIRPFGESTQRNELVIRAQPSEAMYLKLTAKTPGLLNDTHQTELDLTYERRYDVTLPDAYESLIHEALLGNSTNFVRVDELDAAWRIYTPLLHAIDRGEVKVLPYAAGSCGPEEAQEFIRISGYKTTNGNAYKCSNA
Procedure for WT TcG6PDH: G6PDH activity was determined at ~25 °C by monitoring NADPH (ε340 = 6220 M^−1·cm^−1) formation at 340 nm. All assays were performed in buffer B (50 mM Tris pH 7.5, 5 mM MgCl2) in a final reaction volume of 150 µL and started by addition of glucose-6-phosphate (G6P). For WT TcG6PDH, the Michaelis’ constants (KM) and the maximum initial velocity (Vmax) were determined varying reciprocally the substrate (10, 50, 200, 1000 and 5000 µM G6P) and coenzyme (5, 10, 50, 250 and 625 µM NADP^+) concentrations. For the mutants, the kinetic characterization was performed at a fixed saturating concentration of the corresponding co-substrate (i.e., 6 mM G6P and 700 µM NADP^+) and varying concentrations of the substrate (25, 50, 70, 100, 250, 350, 500 and 700 µM NADP^+, and 0.005, 0.025, 0.05, 0.25, 0.65, 1, 2.5 and 5 mM G6P). […] The first 30 s of the reaction were used to calculate initial velocities that were normalized by the corresponding enzyme concentration in the assay. All measurements were performed in triplicate using a Cary 50 Bio spectrophotometer (Agilent Technologies, Santa Clara, CA, USA). The initial rates were determined with the Origin Pro 8.0 software (OriginLab Corporation, Northampton, MA, USA), and the apparent kinetic constants were calculated by nonlinear regression using the GraphPad Prism 5.0 software (GraphPad Inc., San Diego, CA, USA). The data were fitted to the Cleland or Michaelis-Menten equation to obtain the corresponding kinetic parameters.

What is called IC50 is the midpoint of a concentration-inhibition curve. In general, Ki refers to the dissociation constant of the complex between target and ligand, obtained from inhibition or displacement. The molecule `C[C@]12CC[C@H](O)C[C@@H]1CC[C@@H]1[C@@H]2CC[C@]2(C)C(=O)CC[C@@H]12` [EA, epiandrosterone, reference compound] gave an IC50 against TcG6PDH wildtype of 3000 ± 400 nM. Moreover, the activity at 30 µM at TcG6PDH wildtype came out at 12 ± 2%. For the same molecule, the Ki at T. cruzi G6PDH (TcG6PDH) was 1000 to 5600 nM; at human G6PDH, 3000 nM; at G6PDH from T. brucei it was 500 nM. Besides, the “sensitivity of trypanosomes expressing L. mexicana G6PDH” value in assay [1] is “resistant”.

Take `CCNC(=O)N[C@H]1CC[C@@]2(C)C(CCC3C2CC[C@]2(C)C(=O)CCC32)C1` (stereo partly shown) [Compound 1]: on TcG6PDH wildtype, the midpoint of inhibition, the IC50, lay at 1500 nM; the activity at 30 µM stood at 7 ± 1%; the “increase of potency towards the parasite enzyme compared to the parental scaffold (EA)” value is given as at most 2 fold. In the assay on human G6PDH, the “increase of inhibition of human G6PDH compared to the parental scaffold (EA)” value is recorded as ~ 10 fold.

Consider `C[C@]12CC[C@H](O)CC1=CC[C@@H]1[C@@H]2CC[C@]2(C)C(=O)CC[C@@H]12` [DHEA, dehydroepiandrosterone], for which the Ki was 2600 to 25000 nM at T. cruzi G6PDH (TcG6PDH), 6000 to 9000 nM at human G6PDH and 1700 nM at G6PDH from T. brucei.

As usually defined, the Km is the concentration of substrate that gives half-maximal velocity. By kcat is commonly meant the maximal rate divided by the concentration of active sites. Regarding `O=C[C@H](O)[C@@H](O)[C@H](O)[C@H](O)COP(=O)(O)O` [Compound G6P, glucose-6-phosphate], the Km with WT TcG6PDH (read-out: KM G6P, apparent, triplicate) stood at 77 ± 20 µM. The kcat in the assay with WT TcG6PDH (varying G6P) worked out at 62 ± 3 s⁻¹.

As to `C[C@]12CC[C@H](O)CC1CCC1C2CC[C@]2(C)C(=O)C(Br)CC12` (stereo partly shown) [Compound 16Br-EA, 16-bromo epiandrosterone, reference compound], in the assay with human G6PDH, the “activity against human G6PDH relative to TcG6PDH” value is listed as “almost two orders of magnitude less active”.

In the case of `NC(=O)c1ccc[n+]([C@@H]2O[C@H](COP(=O)([O-])OP(=O)(O)OC[C@H]3O[C@@H](n4cnc5c(N)ncnc54)[C@H](OP(=O)(O)O)[C@@H]3O)[C@@H](O)[C@H]2O)c1` [NADP^+], the Km with WT TcG6PDH (read-out: KM NADP^+, apparent, triplicate) came out at 16 ± 3 µM. Further, the kcat in the assay on WT TcG6PDH (varying NADP+) is 52 ± 2 s⁻¹.

The inhibition is the drop in the measured response relative to a control, in per cent. For the molecule `C[C@]12CC[C@H](NS(N)(=O)=O)CC1CCC1C2CC[C@@]2(C)C1CC[C@@H]2C(=O)CO` (stereo partly shown) [Compound 3], at TcG6PDH wildtype, the activity at 30 µM came out at 30 ± 2% and the inhibition at 30 µM lay in the range of 60 to 70%. Further, in the assay with human G6PDH, the IC50 is around 2000 nM.

Regarding `C[C@]12CC[C@H](O)CC1CCC1C2CC[C@@]2(C)C1CC[C@@H]2C(=O)CO` (stereo partly shown) [Compound 4], at TcG6PDH wildtype, the activity at 30 µM came to 43 ± 2% and the inhibition at 30 µM is 60 to 70%. In the assay on human G6PDH, the IC50 is around 2000 nM.

With `C[C@]12CC[C@H](NS(N)(=O)=O)CC1CCC1C2CC[C@]2(C)C(=O)CCC12` (stereo partly shown) [Compound 2], on TcG6PDH wildtype, the midpoint of inhibition, the IC50, lay at 2200 nM; the activity at 30 µM was 9 ± 1%; the “increase of potency towards the parasite enzyme compared to the parental scaffold (EA)” value was at most 2 fold. In addition, in the assay on human G6PDH, the “increase of inhibition of human G6PDH compared to the parental scaffold (EA)” value is ~ 10 fold.

The values above are taken from paper PMC6273692, “Binding Mode and Selectivity of Steroids towards Glucose-6-phosphate Dehydrogenase from the Pathogen Trypanosoma cruzi” (Molecules, 2016).
